Laboratory results taken from patent publication US11833256B2, “Selective RARγ ligand-loaded nanoparticles for manipulation of targeted bone growth” (University Of Maryland, Baltimore, priority 2017, dated 2023).

Tests used:
[1] = tested on: ectopic bone formation in RARγ-null mice; test: Ectopic bone formation model in RARγ-null mice; type: in vivo, mouse; conditions: N=8
Method: To verify specificity of this drug action, similar ectopic bone formation experiments were carried out with RARγ-null mice treated with vehicle or one of the antagonists (CD2665) (FIG. 13E).

[2] = tested on: pSmad1/5/8-positive cells (canonical BMP signaling); test: pSmad1/5/8 immunohistochemistry of ectopic BMP-Matrigel masses; type: in vivo, mouse; conditions: 4 mg/kg on day 1 and 3; samples day 5
Method: Tissue samples were fixed in 4% paraformaldehyde overnight at 4° C., decalcified in 10% EDTA (for calcified samples only), processed for paraffin embedding, and serially sectioned at 6 μm-thickness. Sections were stained with hematoxylin and eosin (HE) for general profiling or with Alcian blue at pH 1.0 and eosin counter-staining. For immunohistochemical analysis, antigen retrieval was performed with 0.1% pepsin in 0.02 N—HCl for 10 minutes, and sections were incubated with blocking solution (0.1 M NaPB, 1% BSA and 10% normal goat serum) for 1 hour and then with primary antibodies against phospho-Smad1/5/8 (Cell Signaling Technology™, 9511, 1:100) overnight at 4° C. The antibodies were visualized using rabbit specific HRP/DAB (ABC™) detection kit (Abcam™, ab64261). After detection, sections were counter-stained with 0.5% methyl green.
There are reciprocal antagonistic relationships between the retinoid and BMP signaling pathways in several biological systems. In addition, the suppression of chondrogenesis and heterotopic ossification by RARγ agonists involved inhibition of canonical BMP signaling. Thus, it became important to determine if and how BMP signaling was affected in the various experimental approaches here. […]
First, the distribution of phosphorylated Smad1/5/8-positive cells was determined within regenerating tibial bone defect areas in wild type and RARγ-null mice (FIG. 6A). […]

[3] = tested on: BMP signaling (phosphorylated Smad1/5, p38, Erk1/2); test: Immunoblotting of phosphorylated Smad1/5, p38 and Erk1/2 in ATDC5 cells / primary chondrocytes; type: cell-based, mouse; conditions: in the presence of 10 ng/mL rhBMP-2; each dose tested
Method: ATDC5 cells were grown until approximately 70% confluence in Dulbecco's modified Eagle's medium/Ham's nutrient mixture F-12 containing 5% fetal bovine serum (FBS). After serum deprivation (0.3% FBS) for 16 hours, cultures were treated with rhBMP-2 and/or retinoids for 60 minutes and then lysed in SDS-PAGE sample buffer. Cell lysates were denatured, separated onto 10% SDS-page gels and transferred to PVDF membranes (Millipore™, USA). Membranes were incubated overnight at 4° C. with antibodies against phospho-Smad1/5 (Cell Signaling Technology™, 9516, 1:1000), phospho-Smad1/5/8 (Cell Signaling Technology™, 9511, 1:1000), phospho-Erk1/2 (Cell Signaling Technology™, 4370, 1:500), or phospho-p38 (Cell Signaling Technology™, 4511, 1:500), followed by incubation with horseradish peroxidase (HRP)-conjugated secondary antibody (Cell Signaling Technology™, 7074, 1:2000). HRP activity was detected using a SuperSignal™ West Dura Extended Duration Substrate (Thermo Scientific™, USA). Membranes were re-blotted with antibodies against GAPDH (Santa Cruz Biotechnology™, sc-32233, 1:1000) for loading normalization.
RARγ was examined for whether it has cell-autonomous roles on BMP signaling in chondrocytes. […] Levels of phosphorylated Smad1/5, p38 and Erk1/2 were analyzed by immunoblotting. […]

[4] = tested on: canonical BMP signaling reporter Id1-Luc; test: Id1-luc reporter assay in primary chondrocytes; type: cell-based, mouse
Method: Primary mouse epiphyseal chondrocytes were isolated from neonatal C57BL/6J mice according to known methods (Yasuhara et al., Lab. Invest. 91(12):1739-1752, 2011) and were plated on 48- or 96-well plates and serum-starved overnight. Cultures were co-transfected with canonical BMP signaling reporter Id1-Luc or retinoic acid response element (RARE)-Luc plasmids and phRG-TK (Promega™) using Lipofectamine LTX™ and Plus™ reagent (Invitrogen™) according to the manufacturer's protocol. Twenty four hours later, cells were treated with rhBMP-2 and/or retinoid and incubated for an additional 24 hours. Cells then were harvested and subjected to dual luciferase assay (Promega™). Firefly luciferase activity was normalized to renilla luciferase activity generated by phRG-TK.
Enhancement of BMP-Smad signaling by RARγ antagonists was confirmed by Id1-luc reporter assays. Cells were treated with the indicated doses of CD2665 or MM11253 in the absence or presence of 10 ng/mL rhBMP-2.

[5] = Hydrophobicity of acetaminophen-capped prodrug derivative versus parent; type: physicochemical; conditions: acetaminophen-capped derivative vs parent retinoid
Description: In order to produce an in situ activatable, reversibly hydrophobized prodrug derivatives of a RARγ agonist, a pro-drug can be delivered in a nanoparticle formulation. […] However, the ionizable carboxylic group promotes the partitioning of the compound from the particle to the surrounding aqueous medium. […] The compound would be activatable upon release can increase the stability of the particle-cargo association and help achieve a more lasting and highly localized therapeutic effect. Such constructs are in essence mutual prodrugs or co-drugs, as they regenerate in one step the retinoid compound and acetaminophen, a biologically active “helper” agent, which can play an important supporting role in therapy.

Structure (SMILES) | ectopic bone formation in RARγ-null mice, drug vs vehicle [1] | pSmad1/5/8-positive cells in ectopic BMP-Matrigel masses [2] | pSmad1/5/8 levels (immunoblot) [3] | Id1-luc reporter activity ([4]; absence of exogenous rhBMP-2) | Id1-luc reporter activity ([4]; presence of 10 ng/mL rhBMP-2) | more hydrophobic derivative if modified with acetaminophen [5]
COCCOCOc1cc2ccc(-c3ccc(C(=O)O)cc3)cc2cc1C12CC3CC(CC(C3)C1)C2 [CD2665] | No significant differences in bone formation | more numerous and obvious | significantly enhanced | slightly increased | significantly enhanced | –
CC1(C)CCC(C)(C)c2cc(C3(c4ccc5cc(C(=O)O)ccc5c4)SCCS3)ccc21 [MM11253] | – | – | significantly enhanced | slightly increased | significantly enhanced | 5 fold
